According to ChEMBL document CHEMBL1154992, “New steroidal glycosides from the fruits of Tribulus terrestris” (J Nat Prod, 2000):
Converted amounts (≈) assume the structure as drawn.

Test system: SK-MEL
Test: Cytotoxicity against human SK-MEL cells after 48 hrs by neutral red staining
Format: functional, cell-based

`C[C@H]1CC[C@@]2(OC1)O[C@H]1C[C@H]3[C@@H]4CC[C@@H]5C[C@@H](O[C@@H]6O[C@H](CO)[C@H](O[C@@H]7O[C@H](CO)[C@@H](O)[C@H](O)[C@H]7O)[C@H](O)[C@H]6O[C@@H]6O[C@@H](C)[C@H](O)[C@@H](O)[C@H]6O)CC[C@]5(C)[C@H]4CC[C@]3(C)[C@H]1[C@@H]2C` was tested, and the IC50 was 6.7 µg/mL (≈ 7.55 µM).
